Measurements: patent publication US3971779A, “7-[2-(5-Amino-1,3,4-thiadiazol-2-ylthio)acetamido]cephalosporins” (American Home Products Corporation, priority 1975, dated 1976)
≈ marks a conversion by molar mass, not a printed value. Read-outs that look alike come from different tables or passages of the source.

Columns and labels:
Experiment in all cases: agar serial dilution MIC
Assay type in all cases: cell-based
Shigella boydii 9207 = conditions: Example 4
Method: (§1) A stock solution of 7-[2-(4,5-dihydro-5-imino-1,3,4-thiadiazol-2-ylthio)acetamido]cephalosporanic acid as the hydrobromic acid addition salt containing 2,500 μg. of the active moiety is prepared in phosphate buffer. Two fold serial dilutions are prepared with phosphate buffer. One milliliter (ml.) quantities of each dilution are incorporated in 9 ml. seen agar in sterile Petri plates. The hardened surface is innoculated with test organisms using a Steers replicating device. The plates are incubated at 35° C. for 18 hours.
(§2) The test organisms are Bacillus subtilis (BA SU) 6633; Staphylococcus aureus (ST AU) 6538P, Smith CHP, and 3-180; Mycobacterium smegmatis (MY SM) 10143; Neisseria catarrhalis (NE CA) 8193; Pseudonomas aeruginosa (PS AE) 10145; Escherichia coli (ES CO) 9637, and 920; Escherichia intermedia (ES IN) 65-1; Salmonella paratyphi (SA PA) 11737; Enterobacter aerogenes (EN AE) 13048; Klebsiella pneumoniae (KL PN) 10031; Bordetella bronchiseptica (BO BR) 4617; Proteus vulgaris (PR VU) 6896; and Herellea species (HE SP) 9955. These organisms are grown for 18 hours in Brain heart infusion at 35° C. Prior to use the cultures are diluted 10 fold with the infusion, except in the case of Mycobacterium. The latter is grown in Emerson's broth for 5 days at 28° C. in shaker flasks and used undiluted.
(§3) Following the procedure of Example 2 but substituting the organisms listed below the same preparation of 7-[2-(4,5-dihydro-5-imino-1,3,4-thiadiazol-2-ylthio)acetamido]cephalosporanic acid (Compound A) as used in Example 3, a third sample of the same compound, prepared as described in Example 1 (Compound B) and 7-[2-(5-acetamido-1,3,4-thiadiazol-2-ylthio)acetamido]cephalosporanic acid (Compound C) are tested to obtain the results shown: […]

[1] = test system: Citrobacter diversus 27156; conditions: Citrobacter koseri, Example 4
Method: as §1, §2, §3

[2] = test system: Salmonella cholera-suis 13312
Method: as §1, §2, §3

[3] = test system: Providencia stuartii 25825; conditions: Example 4
Method: as §1, §2, §3

Klebsiella ozaenae 11296 = test system: Klebsiella ozaenae 11296
Method: as §1, §2, §3

[4] = test system: Klebsiella pneumoniae 13883
Method: as §1, §2, §3

[5] = test system: Salmonella enteritidis 13076; conditions: Salmonella enterica, Example 4
Method: as §1, §2, §3

[6] = test system: Acinetobacter calcoaceticus 9957
Method: as §1, §2, §3

Arizona arizonae 13314 = test system: Arizona arizonae 13314
Method: as §1, §2, §3

[7] = test system: Bordetella bronchiseptica (BO BR) 4617; conditions: 18 h
Method: as §1, §2
(§4) A second preparation of 7-[2-(4,5-dihydro-5-imino-1,3,4-thiadiazol-2-ylthio)acetamido]cephalosporanic acid prepared as described in Example 1 is tested as described in Example 2. The minimum inhibitory concentrations obtained are as follows: […]

[8] = test system: Staphylococcus aureus (ST AU) Smith
Method: as §1, §2, §4

[9] = test system: Enterobacter aerogenes (EN AE) 13048; conditions: Klebsiella aerogenes
Method: as §1, §2, §4

[10] = test system: Neisseria catarrhalis (NE CA) 8193
Method: as §1, §2, §4

[11] = test system: Proteus vulgaris (PR VU) 6896
Method: as §1, §2, §4

[12] = test system: Escherichia intermedia (ES IN) 65-1; conditions: Citrobacter intermedius
Method: as §1, §2, §4

[13] = test system: Staphylococcus aureus (ST AU) 3-180; conditions: 18 h
Method: as §1, §2, §4

[14] = test system: Staphylococcus aureus (ST AU) CHP
Method: as §1, §2, §4

[15] = test system: Herellea species (HE SP) 9955
Method: as §1, §2, §4

[16] = test system: Staphylococcus aureus (ST AU) 6538P
Method: as §1, §2, §4

[17] = test system: Klebsiella pneumoniae (KL PN) 10031
Method: as §1, §2, §4

[18] = test system: Mycobacterium smegmatis (MY SM) 10143; conditions: Mycolicibacterium smegmatis
Method: as §1, §2, §4

[19] = test system: Salmonella paratyphi (SA PA) 11737; conditions: Salmonella enterica, 18 h
Method: as §1, §2, §4

[20] = test system: Bacillus subtilis (BA SU) 6633
Method: as §1, §2, §4

[21] = test system: Escherichia coli (ES CO) 920
Method: as §1, §2, §4

[22] = test system: Escherichia coli (ES CO) 9637
Method: as §1, §2, §4

[23] = test system: Pseudonomas aeruginosa (PS AE) 10145
Method: as §1, §2, §4

[24] = read-out: minimum concentration (MIC) required to completely inhibit growth
[25] = second preparation (Example 3), read-out: minimum inhibitory concentration (MIC)
[26] = 18 h, second preparation (Example 3), read-out: minimum inhibitory concentration (MIC)
[27] = first preparation (Example 2), HBr salt, 35° C., 18 hours, read-out: minimum concentration (MIC) required to completely inhibit growth

## CC(=O)OCC1=C(C(=O)O)N2C(=O)C(NC(=O)CSc3n[nH]c(=N)s3)C2SC1 (stereo not drawn) [7-[2-(4,5-Dihydro-5-Imino-1,3,4-Thiadiazol-2-ylthio)Acetamido]Cephalosporanic Acid]
Shigella boydii 9207
  MIC: 62.5 µg/mL (≈ 140 µM)
[1]
  MIC: 1.95 µg/mL (≈ 4.38 µM)
[2]
  MIC: 1.95 µg/mL (≈ 4.38 µM)
[3]
  MIC: 250 µg/mL (≈ 561 µM)
Klebsiella ozaenae 11296
  MIC: 1.95 µg/mL (≈ 4.38 µM)
[4]; Klebsiella pneumoniae, 13883, Example 4
  MIC: 7.81 µg/mL (≈ 17.5 µM)
[4]; Klebsiella pneumoniae, 13883, Example 4, read-out: MIC
  MIC: 15.6 µg/mL (≈ 35 µM)
[5]
  MIC: 1.95 µg/mL (≈ 4.38 µM)
[6]
  MIC: 7.81 µg/mL (≈ 17.5 µM)
Arizona arizonae 13314; Salmonella enterica, 13314, Example 4
  MIC: 1.95 µg/mL (≈ 4.38 µM)
Arizona arizonae 13314; Salmonella enterica, 13314, Example 4, read-out: MIC
  MIC: 3.9 µg/mL (≈ 8.75 µM)
[7]; [24]
  MIC: 7.81 µg/mL (≈ 17.5 µM)
[7]; [25]
  MIC: 3.9 µg/mL (≈ 8.75 µM)
[8]; [26]
  MIC: 0.488 µg/mL (≈ 1.1 µM)
[8]; [27]
  MIC: 0.244 µg/mL
[9]; [26]
  MIC: > 250 µg/mL
[9]; [27]
  MIC: > 250 µg/mL
[10]; [26]
  MIC: 62.5 µg/mL (≈ 140 µM)
[10]; [27]
  MIC: 31.3 µg/mL
[11]; [26]
  MIC: 3.9 µg/mL (≈ 8.75 µM)
[11]; [27]
  MIC: 15.6 µg/mL
[12]; [26]
  MIC: > 250 µg/mL
[12]; [27]
  MIC: > 250 µg/mL
[13]; [24]
  MIC: 1.95 µg/mL (≈ 4.38 µM)
[13]; [25]
  MIC: 3.9 µg/mL (≈ 8.75 µM)
[14]; 18 h, read-out: minimum inhibitory concentration (MIC)
  MIC: 1.95 µg/mL (≈ 4.38 µM)
[14]; [27]
  MIC: 0.976 µg/mL
[15]; [26]
  MIC: > 250 µg/mL
[15]; [27]
  MIC: > 250 µg/mL
[16]; [26]
  MIC: 0.976 µg/mL (≈ 2.19 µM)
[16]; [27]
  MIC: 0.488 µg/mL
[17]; [26]
  MIC: 3.9 µg/mL (≈ 8.75 µM)
[17]; [27]
  MIC: 3.9 µg/mL
[18]; [26]
  MIC: > 250 µg/mL
[18]; [27]
  MIC: > 250 µg/mL
[19]; [24]
  MIC: 3.9 µg/mL (≈ 8.75 µM)
[19]; read-out: minimum inhibitory concentration (MIC)
  MIC: 3.9 µg/mL (≈ 8.75 µM)
[20]; [26]
  MIC: 0.122 µg/mL (≈ 0.274 µM)
[20]; [27]
  MIC: 0.122 µg/mL
[21]; [26]
  MIC: 3.9 µg/mL (≈ 8.75 µM)
[21]; [27]
  MIC: 15.6 µg/mL
[22]; [26]
  MIC: 31.3 µg/mL (≈ 70.3 µM)
[22]; [27]
  MIC: 7.81 µg/mL
[23]; [26]
  MIC: > 250 µg/mL
[23]; [27]
  MIC: > 250 µg/mL
